Three compounds from ChEMBL document CHEMBL4613328, “Dual Targeting of Norepinephrine Transporter (NET) Function and Thyrointegrin αvβ3 Receptors in the Treatment of Neuroblastoma” (J Med Chem, 2020) can be followed below.

Activity calls are given as the source filed them. No cut-off for these calls is given here.

Data set [1] in a line: Drug uptake in human SK-N-FI cells using Cy7-labeled compound incubated for 4 hrs by confocal microscopy. It is filed as ADME, cell-based.
In data set [2] the test system is SK-N-FI. Kind of data set: Antitumor activity against human SK-N-FI cells xenografted in Ncr nude mouse assessed as inhibition of tumor growth by measuring suppression of tumor weight at 3 mg/kg, sc dosed daily for 15 days relative to control. The note with it: for inhibition in vivo at 3 mg/kg: 360 h, read-out: TGI. It counts as functional. For orientation: In xenograft studies the graft and the host belong to different species.

Data set [3] in a line: Drug uptake in nucleus of human SK-N-FI cells using Cy7-labeled compound incubated for 4 hrs by confocal microscopy. It is filed as ADME, subcellular.
Data set [4] has as its target T1, Integrin alpha-V/beta-3 (Homo sapiens, UniProt P05106+P06756). Put plainly: Binding affinity to purified integrin alphaVbeta3 receptor (unknown origin) incubated for 2 hrs. It counts as protein-complex assay.
Target sequence in this assay (P05106 27-788 limits assumed): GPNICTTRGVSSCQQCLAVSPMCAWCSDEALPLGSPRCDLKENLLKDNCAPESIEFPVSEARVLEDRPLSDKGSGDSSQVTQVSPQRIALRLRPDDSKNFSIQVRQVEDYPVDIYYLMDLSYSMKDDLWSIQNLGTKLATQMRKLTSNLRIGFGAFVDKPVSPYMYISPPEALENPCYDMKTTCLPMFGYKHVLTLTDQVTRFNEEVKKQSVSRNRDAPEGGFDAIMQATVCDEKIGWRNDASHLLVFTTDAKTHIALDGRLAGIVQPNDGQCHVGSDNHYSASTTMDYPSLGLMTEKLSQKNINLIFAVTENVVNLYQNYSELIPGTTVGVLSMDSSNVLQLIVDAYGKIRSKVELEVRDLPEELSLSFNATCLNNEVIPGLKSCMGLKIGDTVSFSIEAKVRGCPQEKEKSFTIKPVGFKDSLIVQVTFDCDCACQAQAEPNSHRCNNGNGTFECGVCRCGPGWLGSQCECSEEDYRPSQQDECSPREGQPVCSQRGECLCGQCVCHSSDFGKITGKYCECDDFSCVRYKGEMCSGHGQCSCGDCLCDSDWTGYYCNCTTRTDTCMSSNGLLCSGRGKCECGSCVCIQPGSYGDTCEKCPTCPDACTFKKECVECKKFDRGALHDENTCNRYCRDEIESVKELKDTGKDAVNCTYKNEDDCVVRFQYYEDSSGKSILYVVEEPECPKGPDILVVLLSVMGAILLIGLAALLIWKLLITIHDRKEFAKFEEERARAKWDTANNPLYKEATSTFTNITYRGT
Target sequence in this assay (P06756 31-889 limits assumed): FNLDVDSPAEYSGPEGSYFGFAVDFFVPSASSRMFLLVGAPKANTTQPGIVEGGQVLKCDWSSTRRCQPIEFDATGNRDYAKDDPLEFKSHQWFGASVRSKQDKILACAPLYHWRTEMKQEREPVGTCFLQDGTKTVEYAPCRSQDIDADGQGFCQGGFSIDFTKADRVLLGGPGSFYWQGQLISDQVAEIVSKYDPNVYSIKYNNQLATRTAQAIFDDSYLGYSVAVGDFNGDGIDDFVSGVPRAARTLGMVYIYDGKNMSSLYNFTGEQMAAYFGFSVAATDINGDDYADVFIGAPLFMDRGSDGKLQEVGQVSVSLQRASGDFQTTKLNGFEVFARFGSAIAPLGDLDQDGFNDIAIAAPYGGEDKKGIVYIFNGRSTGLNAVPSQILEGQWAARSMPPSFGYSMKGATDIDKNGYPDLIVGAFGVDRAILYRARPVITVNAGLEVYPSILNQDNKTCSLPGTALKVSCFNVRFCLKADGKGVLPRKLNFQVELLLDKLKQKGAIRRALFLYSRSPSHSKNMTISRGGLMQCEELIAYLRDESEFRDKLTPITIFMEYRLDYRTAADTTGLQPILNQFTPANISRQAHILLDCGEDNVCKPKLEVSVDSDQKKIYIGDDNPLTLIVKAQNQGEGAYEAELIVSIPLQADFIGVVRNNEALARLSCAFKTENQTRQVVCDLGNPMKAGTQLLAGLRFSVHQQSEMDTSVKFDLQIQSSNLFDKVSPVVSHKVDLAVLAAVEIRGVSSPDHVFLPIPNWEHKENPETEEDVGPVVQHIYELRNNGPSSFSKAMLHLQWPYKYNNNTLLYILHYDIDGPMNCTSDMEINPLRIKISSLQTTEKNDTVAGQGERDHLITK
Target sequence in this assay (P06756 891-1048 limits assumed): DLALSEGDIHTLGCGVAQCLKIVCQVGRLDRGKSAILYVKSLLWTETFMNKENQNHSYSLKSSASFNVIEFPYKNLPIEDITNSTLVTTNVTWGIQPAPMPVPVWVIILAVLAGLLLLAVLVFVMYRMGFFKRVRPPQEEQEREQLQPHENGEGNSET
The subject of data set [5] is SK-N-FI. Put plainly: Antitumor activity against human SK-N-FI cells xenografted in Ncr nude mouse assessed as inhibition of neuroblastoma tumor cell viability at 1 to 10 mg/kg, sc dosed daily for 15 days relative to control. It is filed as functional.
The test system of data set [6] is SK-N-FI. Kind of data set: Antitumor activity against human SK-N-FI cells xenografted in Ncr nude mouse assessed as inhibition of tumor growth at 1 to 10 mg/kg, sc dosed daily up to 15 days relative to control. It counts as functional.
Data set [7] deals with SK-N-FI. Kind of data set: Inhibition of cell proliferation of human SK-N-FI cells at 30 to 100 uM incubated for 24 hrs relative to control. It is filed as functional.
In data set [8] the test system is SK-N-FI. Put plainly: Inhibition of cell proliferation of human SK-N-FI cells at 30 to 100 uM incubated for 48 hrs relative to control. It counts as functional.
Data set [9] concerns SK-N-FI. Put plainly: Antitumor activity against human SK-N-FI cells xenografted in Ncr nude mouse assessed as increase in neuroblastoma tumor apoptosis and necrosis at 1 to 10 mg/kg, sc dosed daily for 15 days relative to control. It counts as functional.
The target in data set [10] is T1, Integrin alpha-V/beta-3. Kind of data set: Binding affinity to […] integrin alphaVbeta3 in human SK-N-FI cells using Cy7-labeled compound incubated for 4 hrs by confocal microscopy. It is filed as cell-based.

For `N=C(N)NCc1ccccc1`, the Drug uptake in data set [1] lay in the range of 90 to 100%. For the same compound, the TGI result in data set [2] was “inactive”.
For the compound `O=C(O)Cc1cc(I)c(Oc2cc(I)c(O)c(I)c2)c(I)c1` [TETRAC], in data set [3], the Drug uptake entry is given as “Active”. In [4], this compound returned an IC50 of 62.4 nM. The inhibition in vivo at 3 mg/kg in [2] is 40 to 50%.
As for `N=C(N)NCc1ccc(OCCOCCOCCOCCOCCOCCOCCn2cc(COc3c(I)cc(Oc4c(I)cc(CC(=O)O)cc4I)cc3I)nn2)cc1`, the “inhibition (INH)” value in data set [5] is reported as 80 - 100%; in [7], 30%; in data set [8] it was 50 - 60%. The TGI in data set [6] is on record as 80 - 100%. For the same compound, the Drug uptake entry in [3] is listed as “Not Active”. Further, the inhibition in vivo at 3 mg/kg in data set [2] was 80 to 100%. Besides, in data set [9], the Activity is 80 - 100%. In data set [10], the result was Active.

By IC50 is commonly meant the concentration that inhibits the measured activity by half. Low values mean inhibition by little substance, high ones a need for much substance.
